Results published in US6342765B1, “Imidazole derivatives and their use as farnesyl protein transferase inhibitors” (AstraZeneca UK Limited, priority 1997, dated 2002).

Columns and labels:
[1] = target: T1, Farnesyl protein transferase (FPT) (Homo sapiens, UniProt P49354+P49356); assay: In-vitro farnesyl protein transferase assay (farnesylation of Ki-ras with radiolabelled farnesyl pyrophosphate); type: biochemical; conditions: read-out: IC50 in the above test
T1 construct: partially purified from human placenta; from tissue; host or cells: human placenta
Procedure: The following stock solutions were used and the assays were conducted in 96 well plates: TRIS Buffer (500 mM TRIS, 50 mM MgCl2.6H2O, pH=8.0); Farnesyl pyrophosphate (6.4 mg/ml); Aprotinin (1.9 mg/ml); Ki-ras (0.5 mg/ml, stored at −80° C.); Acid ethanol (850 ml absolute ethanol+150 ml concentrated HCl).
Farnesyl protein transferase (FPT) was partially purified from human placenta by t ammonium sulphate fractionation followed by a single Q-Sepharose™ (Pharmacia, Inc) anion exchange chromatography essentially as described by Ray and Lopez-Belmonte (Ray K P and Lopez-Belmonte J (1992) Biochemical Society Transactions 20 494-497). The substrate for FPT was Kras (CVIM C-terminal sequence). The cDNA for oncogenic val12 variant of human c-Ki-ras-2 4B was obtained from the plasmid pSW11-1 (ATCC). This was then subcloned into the polylinker of a suitable expression vector e.g. pIC147. The Kras was obtained after expression in the E. coli strain, BL21. […]
Assays were performed in 96 well plates as follows: 10 μl of test compound solution was added to each well. […] Precipitated protein was then collected onto glass fibre filter mats (B) using a Tomtec™ cell harvester and tritiated label was measured in a Wallac™1204 Betaplate scintillation counter. […]

| SMILES | IC50 [1] [nM] | melting point [°C] |
| --- | --- | --- |
| CSCC[C@H](NC(=O)c1ccc(COC(Cn2ccnc2)c2ccc(F)cc2)cc1-c1ccc(F)cc1)C(=O)O (stereo partly drawn) [Example 2, (2S)-2-{2-(4-fluorophenyl)-4-[2-(imidazol-1-yl)-1-(4-fluorophenyl)ethoxymethyl]benzoylamino]-4-methylsulfanylbutyric acid] | ~1 |  |
| CSCC[C@H](NC(=O)c1ccc(COC(Cn2ccnc2)c2nccs2)cc1-c1ccc(F)cc1)C(=O)OC(C)(C)C (stereo partly drawn) [Example 16, Tert-butyl (2S)-2-{2-(4-fluorophenyl)-4-[1-(thiazol-2-yl)-2-(imidazol-1-yl)ethoxymethyl]benzoylamino}-4-methylsulfanylbutyrate] |  | 50 to 53 |
